Article PMC9492458, “Development and structure–activity relationships of tanshinones as selective 11β-hydroxysteroid dehydrogenase 1 inhibitors” (Natural Products and Bioprospecting, 2022)
Like-named read-outs stand apart in the source and are kept apart here.

Tests used:
mouse 11β-HSD2 = target: T1, mouse 11β-HSD2 (Mus musculus, UniProt P51661); assay: scintillation proximity assay (SPA), microsomes of HEK-293 cells transfected with mouse 11β-HSD2
T1 sequence (P51661 1-386): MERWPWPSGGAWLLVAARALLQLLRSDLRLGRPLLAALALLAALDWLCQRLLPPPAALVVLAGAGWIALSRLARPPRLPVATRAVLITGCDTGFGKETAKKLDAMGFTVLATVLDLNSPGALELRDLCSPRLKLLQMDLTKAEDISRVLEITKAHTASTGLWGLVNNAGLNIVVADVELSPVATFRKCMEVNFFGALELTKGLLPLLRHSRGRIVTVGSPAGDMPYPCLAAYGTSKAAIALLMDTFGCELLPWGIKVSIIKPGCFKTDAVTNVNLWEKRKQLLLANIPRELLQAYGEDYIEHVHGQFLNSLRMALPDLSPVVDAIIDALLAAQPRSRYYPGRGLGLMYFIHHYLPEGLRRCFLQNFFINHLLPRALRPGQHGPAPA
Procedure: (§1) With diverse tanshinones in hand, inhibition of human and mouse 11β-HSD1 enzymatic potency was measured by scintillation proximity assay (SPA) using microsomes containing 11β-HSD1 [46, 47]. Results are reported as the average of two or three independent experiments at each concentration.
(§2) The SPA was used to screen for inhibitors of 11β-HSDs [48], with the microsome fractions prepared from the HEK-293 cells stably transfected with either human or mouse 11β-HSD1 or 11β-HSD2 as the enzyme source. […] Reactions were initiated by the addition of 11β-HSD1 or 11β-HSD2, enzyme. […] The plates were incubated under plastic film on an orbital shaker for 120 min at room temperature before counting. The amount of [^3H]-cortisol generated in 11β-HSD1 enzyme reaction or remaining from the 11β-HSD2 enzyme reaction was captured by the beads and determined in a microplate liquid scintillation counter. The % inhibition was calculated relative to a non-inhibited control. Data were obtained from two or three independent experiments. IC50 values were calculated from concentration–response curves by a non-linear regression analysis using Prism Version 6.

11β-HSD1 in liver = target: T2, 11β-HSD1 in liver (Mus musculus, UniProt P50172); assay: Measurement of 11β-HSD1 activity in liver of ob/ob mice; type: in vivo; settings: single oral dose 300 mg/kg
T2 construct: from tissue
T2 sequence (P50172 whole entry): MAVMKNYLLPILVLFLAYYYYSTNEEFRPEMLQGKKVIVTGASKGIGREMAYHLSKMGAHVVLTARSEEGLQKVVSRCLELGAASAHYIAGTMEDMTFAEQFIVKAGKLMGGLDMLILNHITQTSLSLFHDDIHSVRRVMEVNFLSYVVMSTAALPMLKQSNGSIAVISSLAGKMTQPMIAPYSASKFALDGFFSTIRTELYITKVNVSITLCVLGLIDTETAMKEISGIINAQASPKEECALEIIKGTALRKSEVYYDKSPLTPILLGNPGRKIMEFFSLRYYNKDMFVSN
Procedure: After single oral administration of 1, 17 or 30 at dose of 300 mg/kg to ob/ob mice, the enzymatic activity of 11β-HSD1 in liver was measured.
B6.V-Lepob/Lepob mice (Jackson Laboratory, Bar Harbor, ME, USA) were bred at the Shanghai Institute of Materia Medica, Chinese Academy of Sciences. All mice were housed in a specific, pathogen-free class laboratory and were maintained at a controlled room temperature (22–24 °C) under a 12 h light–dark cycle with free access to water and food. The animal experiments were conducted in accordance with the guides by the Institutional Animal Care and Utilization Committee (IACUC) of Shanghai Institute of Materia Medica (SIMM), Chinese Academy of Sciences (CAS). The protocol was approved by the IACUC, SIMM, CAS with accreditation number of 2017-08-LY-67. All animal experiment complied with the ARRIVE guidelines for the care and use of laboratory animals.
Ob/ob mice (10 weeks’ old) were given a single dose of 1, 17, 30 (300 mg/kg) or vehicle (0.5% carboxymethyl cellulose, CMC), p.o. After 4 h and 8 h, animals were euthanized with an i.p injection of sodium pentobarbital (60 mg/kg) and the livers were isolated and stored as described above. The liver tissue was homogenized (1 mg/mL) in cold homogenization buffer, and […] of liver homogenates was used to analyze the 11β-HSD1 activity by SPA, as previously described.

human 11β-HSD1 = human 11β-HSD1 (Homo sapiens, UniProt P28845); assay: scintillation proximity assay (SPA), microsomes of HEK-293 cells transfected with human 11β-HSD1; settings: for Human SI (selectivity index): SI = IC50(HSD2)/IC50(HSD1); for inhibition at 1 µM: read-out: Inhibitory ratio h-HSD1, at 1.0 μM, averages of three determinations
Chain of human 11β-HSD1 (P28845 whole entry): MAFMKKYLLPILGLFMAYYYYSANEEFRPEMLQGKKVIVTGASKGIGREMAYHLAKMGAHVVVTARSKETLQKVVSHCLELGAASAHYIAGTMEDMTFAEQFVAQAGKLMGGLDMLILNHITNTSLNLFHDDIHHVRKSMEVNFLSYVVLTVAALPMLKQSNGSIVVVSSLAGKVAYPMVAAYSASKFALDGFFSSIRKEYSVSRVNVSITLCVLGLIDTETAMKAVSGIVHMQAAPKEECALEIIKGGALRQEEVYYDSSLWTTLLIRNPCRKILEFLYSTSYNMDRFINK
Procedure: as §1, §2

mouse 11β-HSD1 = mouse 11β-HSD1 (Mus musculus, UniProt P50172); assay: scintillation proximity assay (SPA), microsomes of HEK-293 cells transfected with mouse 11β-HSD1; settings: for Mouse SI (selectivity index): SI = IC50(HSD2)/IC50(HSD1); for inhibition at 1 µM: read-out: Inhibitory ratio m-HSD1, at 1.0 μM, averages of three determinations
Chain of mouse 11β-HSD1 (P50172 whole entry): as the sequence (P50172 whole entry) above
Procedure: as §1, §2

[1] = target: T3, 11β-HSD1 in 3T3-L1 adipocytes (Mus musculus, UniProt P50172); assay: 11β-HSD1 activity assay in 3T3-L1 adipocytes; type: cell-based; settings: for IC50: 1 h incubation, averages of three determinations, read-out: IC50, cellular assay on 3T3-L1 adipocyte against 11β-HSD1; for Emax: inhibition relative to MK544 10 μM, read-out: Max effect
T3 construct: endogenous in cells; host or cells: 3T3-L1 adipocytes
T3 sequence (P50172 whole entry): as above
Procedure: 11β-HSD1 enzyme inhibition in adipose tissue is believed to be important for achieving efficacy in vivo [11, 12]. Derivatives with potent enzymatic potency and excellent selectivity profiles (13, 14, 17, 28a, 28b and 30) were also evaluated their 11β-HSD1 inhibition in 3T3-L1 adipocyte.
The reductase activity of 11β-HSD1 in intact 3T3-L1 adipocytes was determined by measuring the rate of conversion of cortisone to cortisol. To explore the effect of compounds on 11β-HSD1 reductase activity, 3T3-L1 adipocytes were incubated for 1 h at 37 °C in serum-free DMEM containing 6.25 nmol/L [1,2-(N)^3H]-cortisone and different concentrations of compounds, according to experimental design. 0.1% DMSO was set as the vehicle control and MK544 was set as the positive control. At the end of the incubation, 80 μL of medium was pipetted into a transparent bottom 96-well plate, and 35 μL of SuperBlock Blocking Buffer containing 10 g/L of protein A-coated yttrium silicate beads and 3 mg/L of anti-cortisol antibodies was added. The mixtures were shaken in the dark for 2 h and then used for liquid scintillation readings. The inhibition effect was calculated by the following equation: Inhibition%=Data(compound)-Data(DMSO Vehicle)/Data(MK54410μM)-Data(DMSO Vehicle)×100%.

human 11β-HSD2 = target: T4, human 11β-HSD2 (Homo sapiens, UniProt P80365); assay: scintillation proximity assay (SPA), microsomes of HEK-293 cells transfected with human 11β-HSD2
T4 sequence (P80365 1-405): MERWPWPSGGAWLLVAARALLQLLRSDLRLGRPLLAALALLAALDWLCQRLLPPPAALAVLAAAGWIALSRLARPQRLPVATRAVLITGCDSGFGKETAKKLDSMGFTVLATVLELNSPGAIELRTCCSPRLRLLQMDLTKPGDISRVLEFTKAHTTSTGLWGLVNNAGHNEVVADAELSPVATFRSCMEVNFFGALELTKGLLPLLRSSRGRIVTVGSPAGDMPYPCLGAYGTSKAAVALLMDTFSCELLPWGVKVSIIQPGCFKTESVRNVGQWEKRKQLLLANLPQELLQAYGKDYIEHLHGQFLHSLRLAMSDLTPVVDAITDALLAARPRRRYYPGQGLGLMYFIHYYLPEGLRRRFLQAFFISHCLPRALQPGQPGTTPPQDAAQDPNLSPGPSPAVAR
Procedure: as §1, §2

IC50 (mouse 11β-HSD2) | IC50 (mouse 11β-HSD2; read-out: Mouse (IC50) 11β-HSD2, Table 3, averages of two determinations) | decrease in 11β-HSD1 activity in liver (11β-HSD1 in liver; 4 h after treatment) | decrease in 11β-HSD1 activity in liver (11β-HSD1 in liver; 8 h after treatment) | IC50 (human 11β-HSD1) | Human SI (selectivity index) (human 11β-HSD1; Table 1) | inhibition at 1 µM (human 11β-HSD1) | IC50 (mouse 11β-HSD1) | Mouse SI (selectivity index) (mouse 11β-HSD1; Table 1) | Mouse SI (selectivity index) (mouse 11β-HSD1; Table 3) | inhibition at 1 µM (mouse 11β-HSD1) | IC50 [1] | Emax [1] | IC50 (human 11β-HSD2) | Human SI (selectivity index) (human 11β-HSD1; Table 3) | SMILES
> 1000 µM | > 1000 µM | 32.9% | 48.4% | 0.0353 ± 0.0154 µM | 3838 | 76.6 ± 1.3% | 0.0322 ± 0.0025 µM | > 31,250 | > 31,055.9 | 89.6 ± 0.6% | 2 ± 0.6 µM | 104 ± 1% | 135 ± 72.5 µM | – | Cc1coc2c1C(=O)C(=O)c1c-2ccc2c1CCCC2(C)C [Compound 1, tanshinone IIA]
> 100 µM | – | – | – | 0.27 µM | – | 67.4 ± 1.6% | 0.0593 ± 0.0095 µM | – | > 1689.2 | 92.3 ± 2.7% | 7.9 µM | 102 ± 0.3% | 2.7 ± 1 µM | 9.9 | Cc1coc2c1C(=O)C(=O)c1c-2ccc2c1C=CCC2(C)C [Compound 13]
> 100 µM | – | – | – | 0.3 µM | – | 57.2 ± 2% | 0.0539 ± 0.0093 µM | – | > 1855.3 | 85.9 ± 1.6% | > 4 µM | 104 ± 1.2% | 5.9 ± 3.4 µM | 19.6 | Cc1coc2c1C(=O)C(=O)c1c-2ccc2c1C=CC(=O)C2(C)C [Compound 14]
> 100 µM | – | – | 38.5% | 0.21 µM | – | 63.5 ± 3.2% | 0.0069 ± 0.0007 µM | – | > 14,492.7 | 84.6 ± 1.4% | 1.4 ± 0.1 µM | 90 ± 0.4% | 5.9 ± 2.3 µM | 28.0 | Cc1coc2c1C(=O)C(=O)c1c-2ccc2c1CCC(=O)C2(C)C [Compound 17]
> 100 µM | – | – | – | 0.149 ± 0.0339 µM | – | 74.3 ± 2.1% | 0.0793 ± 0.0162 µM | – | > 1261.0 | 79.2 ± 2.2% | 3.9 ± 0.1 µM | 104 ± 0.9% | 4.1 ± 0.7 µM | 27.5 | Cc1c(COCO)oc2c1C(=O)C(=O)c1c-2ccc2c1CCCC2(C)C [Compound 28a]
> 100 µM | – | – | – | 0.0998 ± 0.0105 µM | – | 75.3 ± 0.8% | 0.0702 ± 0.0134 µM | – | > 1426.5 | 88.5 ± 0.1% | 3.1 ± 0.6 µM | 100 ± 4% | 6.3 ± 0.9 µM | 62.9 | Cc1c(CO)oc2c1C(=O)C(=O)c1c-2ccc2c1CCCC2(C)C [Compound 28b]
> 100 µM | – | – | 41.2% | 0.0578 ± 0.013 µM | – | 82 ± 2.7% | 0.0222 ± 0.0006 µM | – | > 4510.6 | 98.6 ± 0.7% | 4.4 ± 0.1 µM | 105% | – | – | CC1(C)CCCc2c1ccc1c2C(=O)C(=O)c2c(CO)coc2-1 [Compound 30]
